Test results reported in US20240285634A1, “COMPOUND AND METHOD FOR TREATING CHEMOTHERAPY-ASSOCIATED GASTROINTESTINAL SIDE EFFECTS” (ONQUALITY PHARMACEUTICALS CHINA LTD., priority 2021, published 2024).

Test system: Chemotherapeutic agent-caused diarrhea models of Balb/c mice
Assay: Relieving effect on diarrhea caused by a chemotherapeutic agent (Examples 1-201)
Type: in vivo
Excerpt: Construction of mouse animal models: Chemotherapeutic agent-caused diarrhea models of Balb/c mice were constructed according to the administration mode and frequency of the chemotherapeutic agent as shown in Table 3. After administration for several days, mice developed different extents of diarrhea symptoms (as shown in FIG. 1), which were similar to the conditions in human. Thus, chemotherapeutic agent-caused diarrhea models of mice are very good models to mimic diarrhea in human caused by the chemotherapeutic agent.
Balb/c mice were fed for 1 week, and then divided into groups. The experiment was divided into a control group, a chemotherapeutic agent group, and a group of the compound as shown in Formula I, each of which comprised 10 mice, to perform the administration experiment, for which the administration dosage, mode, time and frequency were shown in Table 3. The control group: being injected or intragastrically administered with the same solvent as that used in the group of the compound as shown in Formula I (the injection mode and time were shown in Table 3), and then being injected or intragastrically administered with the same solvent as that used in the chemotherapeutic agent group (the administration mode was shown in Table 3); the chemotherapeutic agent group: being injected or intragastrically administered with the same solvent as that used in the group of the compound as shown in Formula I (the administration mode and time were shown in Table 3), and then being injected or intragastrically administered with the chemotherapeutic agent (the type, administration mode and dosage were shown in Table 3); the group of the compound as shown in Formula I: being injected or intragastrically administered with the compound as shown in Formula I (the administration mode and time were shown in Table 3), and then being administered with the chemotherapeutic agent (the administration mode and dosage were shown in Table 3).
The scoring of diarrhea can refer to the method of Akinobu Kurita (Cancer Chemother Pharmacol 2000; 46:211-20.), Grade 0: normal feces; Grade 1: mild diarrhea, the stools is slightly wet and soft; Grade 2: moderate diarrhea, loose stools and mild perianal contamination; Grade 3: severe diarrhea, watery stools and accompanied by severe perianal staining (see FIG. 1). It is regarded as effective remission when the diarrhea grading of mice in the group of the compound as shown in Formula I is reduced compared with the average diarrhea grading of mice in the chemotherapeutic agent group.
The diarrhea grading of mice was observed and recorded every day. At the end of the experiment, the number of mice in the group of the compound as shown in Formula I whose diarrhea grading was lower than that of mice in the chemotherapeutic agent group was recorded. Table 3 lists various animal experiment combinations of chemotherapeutic agents and the compound as shown in Formula I, as well as the corresponding experimental results. (Relative remission rate %=the number of mice in the group of the compound as shown in Formula I whose diarrhea has been effectively relieved/the total number of mice in the group of the compound as shown in Formula I*100%. The establishment rate of diarrhea model in the chemotherapeutic agent group was 50%-70%, that is, about 5-7 of 10 mice developed diarrhea during the experiment, and there were cases of individual mice death or not developing diarrhea.)

CN1CCN(c2ccc(Nc3ncc4cc5n(c4n3)C3(CCCCC3)CNC5=O)nc2)CC1 [Compound I, Trilaciclib]
Relative remission rate (Ex 1, 5-Fu 125 mg/kg intraperitoneal single, compound 100 mg/kg intravenous single 0.5 h before, cycle 10 days): 70% | Relative remission rate (Ex 2, 5-Fu 125 mg/kg intraperitoneal single, compound 100 mg/kg intravenous single 1 h before, cycle 10 days): 70% | Relative remission rate (Ex 3, 5-Fu 125 mg/kg intraperitoneal single, compound 100 mg/kg intravenous single 2 h before, cycle 10 days): 60% | Relative remission rate (Ex 4, 5-Fu 125 mg/kg intraperitoneal single, compound 100 mg/kg intravenous single 3 h before, cycle 10 days): 60% | Relative remission rate (Ex 5, 5-Fu 125 mg/kg intraperitoneal single, compound 100 mg/kg intravenous single 4 h before, cycle 10 days): 60% | Relative remission rate (Ex 6, 5-Fu 125 mg/kg intraperitoneal single, compound 100 mg/kg intravenous single 5 h before, cycle 10 days): 40% | Relative remission rate (Ex 7, 5-Fu 125 mg/kg intraperitoneal single, compound 100 mg/kg intravenous single 6 h before, cycle 10 days): 40% | Relative remission rate (Ex 8, 5-Fu 125 mg/kg intraperitoneal single, compound 100 mg/kg intravenous single 7 h before, cycle 10 days): 40% | Relative remission rate (Ex 9, 5-Fu 125 mg/kg intraperitoneal single, compound 100 mg/kg intravenous single 8 h before, cycle 10 days): 50% | Relative remission rate (Ex 10, 5-Fu 125 mg/kg intraperitoneal single, compound 100 mg/kg intravenous single 9 h before, cycle 10 days): 40% | Relative remission rate (Ex 11, 5-Fu 125 mg/kg intraperitoneal single, compound 100 mg/kg intravenous single 10 h before, cycle 10 days): 50% | Relative remission rate (Ex 12, 5-Fu 125 mg/kg intraperitoneal single, compound 100 mg/kg intravenous single 11 h before, cycle 10 days): 40% | Relative remission rate (Ex 13, 5-Fu 125 mg/kg intraperitoneal single, compound 12.5 mg/kg intravenous single 12 h before, cycle 10 days): 30% | Relative remission rate (Ex 14, 5-Fu 125 mg/kg intraperitoneal single, compound 25 mg/kg intravenous single 12 h before, cycle 10 days): 40% | Relative remission rate (Ex 15, 5-Fu 125 mg/kg intraperitoneal single, compound 50 mg/kg intravenous single 12 h before, cycle 10 days): 60% | Relative remission rate (Ex 16, 5-Fu 125 mg/kg intraperitoneal single, compound 100 mg/kg intravenous single 12 h before, cycle 10 days): 70% | Relative remission rate (Ex 17, 5-Fu 125 mg/kg intraperitoneal single, compound 150 mg/kg intravenous single 12 h before, cycle 10 days): 50% | Relative remission rate (Ex 18, 5-Fu 125 mg/kg intraperitoneal single, compound 240 mg/kg intravenous single 12 h before, cycle 10 days): 50% | Relative remission rate (Ex 86, Oxaliplatin 17.5 mg/kg intravenous single, compound 150 mg/kg intravenous single 20 h before, cycle 8 days): 40% | Relative remission rate (Ex 87, Oxaliplatin 17.5 mg/kg intravenous single, compound 150 mg/kg intravenous single 24 h before, cycle 8 days): 50% | Relative remission rate (Ex 88, Oxaliplatin 17.5 mg/kg intravenous single, compound 150 mg/kg intravenous single 48 h before, cycle 8 days): 0% | Relative remission rate (Ex 92, Irinotecan (CPT-11) 240 mg/kg intraperitoneal single, compound 100 mg/kg intravenous single 0.5 h before, cycle 7 days): 50% | Relative remission rate (Ex 93, Irinotecan (CPT-11) 240 mg/kg intraperitoneal single, compound 100 mg/kg intravenous single 1 h before, cycle 7 days): 50% | Relative remission rate (Ex 94, Irinotecan (CPT-11) 240 mg/kg intraperitoneal single, compound 100 mg/kg intravenous single 2 h before, cycle 7 days): 50% | Relative remission rate (Ex 95, Irinotecan (CPT-11) 240 mg/kg intraperitoneal single, compound 100 mg/kg intravenous single 3 h before, cycle 7 days): 40% | Relative remission rate (Ex 96, Irinotecan (CPT-11) 240 mg/kg intraperitoneal single, compound 100 mg/kg intravenous single 4 h before, cycle 7 days): 50% | Relative remission rate (Ex 97, Irinotecan (CPT-11) 240 mg/kg intraperitoneal single, compound 100 mg/kg intravenous single 5 h before, cycle 7 days): 40% | Relative remission rate (Ex 98, Irinotecan (CPT-11) 240 mg/kg intraperitoneal single, compound 100 mg/kg intravenous single 6 h before, cycle 7 days): 40% | Relative remission rate (Ex 99, Irinotecan (CPT-11) 240 mg/kg intraperitoneal single, compound 100 mg/kg intravenous single 7 h before, cycle 7 days): 70% | Relative remission rate (Ex 100, Irinotecan (CPT-11) 240 mg/kg intraperitoneal single, compound 100 mg/kg intravenous single 8 h before, cycle 7 days): 70% | Relative remission rate (Ex 101, Irinotecan (CPT-11) 240 mg/kg intraperitoneal single, compound 100 mg/kg intravenous single 9 h before, cycle 7 days): 60% | Relative remission rate (Ex 102, Irinotecan (CPT-11) 240 mg/kg intraperitoneal single, compound 100 mg/kg intravenous single 10 h before, cycle 7 days): 40% | Relative remission rate (Ex 103, Irinotecan (CPT-11) 240 mg/kg intraperitoneal single, compound 100 mg/kg intravenous single 11 h before, cycle 7 days): 60% | Relative remission rate (Ex 104, Irinotecan (CPT-11) 240 mg/kg intraperitoneal single, compound 100 mg/kg intravenous single 12 h before, cycle 7 days): 60% | Relative remission rate (Ex 105, Irinotecan (CPT-11) 240 mg/kg intraperitoneal single, compound 100 mg/kg intravenous single 14 h before, cycle 7 days): 50% | Relative remission rate (Ex 106, Irinotecan (CPT-11) 240 mg/kg intraperitoneal single, compound 100 mg/kg intravenous single 16 h before, cycle 7 days): 70% | Relative remission rate (Ex 107, Irinotecan (CPT-11) 240 mg/kg intraperitoneal single, compound 100 mg/kg intravenous single 18 h before, cycle 7 days): 70% | Relative remission rate (Ex 108, Irinotecan (CPT-11) 240 mg/kg intraperitoneal single, compound 100 mg/kg intravenous single 20 h before, cycle 7 days): 40% | Relative remission rate (Ex 109, Irinotecan (CPT-11) 240 mg/kg intraperitoneal single, compound 100 mg/kg intravenous single 22 h before, cycle 7 days): 40% | Relative remission rate (Ex 110, Irinotecan (CPT-11) 240 mg/kg intraperitoneal single, compound 100 mg/kg intravenous single 24 h before, cycle 7 days): 30% | Relative remission rate (Ex 111, Irinotecan (CPT-11) 240 mg/kg intraperitoneal single, compound 100 mg/kg intravenous single 48 h before, cycle 7 days): 0% | Relative remission rate (Ex 118, Irinotecan (CPT-11) 300 mg/kg oral single, compound 100 mg/kg intraperitoneal single 12 h before, cycle 11 days): 50% | Relative remission rate (Ex 119, Irinotecan (CPT-11) 250 mg/kg intramuscular single, compound 100 mg/kg intramuscular single 1 h before, cycle 7 days): 70% | Relative remission rate (Ex 120, Irinotecan (CPT-11) 200 mg/kg intravenous single, compound 100 mg/kg intravenous single 0. h before, cycle 7 days): 70% | Relative remission rate (Ex 121, Fluorouracil 100 + irinotecan 200 mg/kg intravenous single, compound 100 mg/kg intravenous single 0.5 h before, cycle 10 days): 70% | Relative remission rate (Ex 122, Fluorouracil 100 + irinotecan 200 mg/kg intravenous single, compound 100 mg/kg intravenous single 4 h before, cycle 10 days): 40% | Relative remission rate (Ex 123, Fluorouracil 100 + irinotecan 200 mg/kg intravenous single, compound 100 mg/kg intravenous single 8 h before, cycle 10 days): 50% | Relative remission rate (Ex 124, Fluorouracil 100 + irinotecan 200 mg/kg intravenous single, compound 100 mg/kg intravenous single 12 h before, cycle 10 days): 50% | Relative remission rate (Ex 125, Fluorouracil 100 + irinotecan 200 mg/kg intravenous single, compound 100 mg/kg intravenous single 24 h before, cycle 10 days): 30% | Relative remission rate (Ex 126, Fluorouracil 100 + irinotecan 200 mg/kg intravenous single, compound 100 mg/kg intravenous single 48 h before, cycle 10 days): 0% | Relative remission rate (Ex 127, Fluorouracil 100 + irinotecan 200 mg/kg intraperitoneal single, compound 100 mg/kg intraperitoneal single 1 h before, cycle 8 days): 40% | Relative remission rate (Ex 128, Fluorouracil 100 + irinotecan 200 mg/kg intraperitoneal single, compound 100 mg/kg intraperitoneal single 12 h before, cycle 8 days): 30% | Relative remission rate (Ex 129, Fluorouracil 100 + irinotecan 200 mg/kg intraperitoneal single, compound 150 mg/kg oral single 0.5 h before, cycle 8 days): 40% | Relative remission rate (Ex 130, Fluorouracil 100 + irinotecan 200 mg/kg intraperitoneal single, compound 150 mg/kg oral single 12 h before, cycle 8 days): 40%
